{"source": "patent US10760110B2", "about": "“Antibiotic testing and screening system” (priority 2017, dated 2020)", "conditions_in_all_cases": "Klebsiella pneumoniae", "key": {"[1]": {"system": "K. pneumoniae NVT1001 ΔramRΔompK35/36 mutant and its revertants", "assay": "Etest MIC, ΔramRΔompK35/36 mutant and its revertants (Table 7)", "assay_type": "cell-based"}, "[2]": {"system": "K. pneumoniae NVT1001 strains with carbapenemase plasmids", "assay": "Etest MIC of β-lactams, OmpK35/36 loss, ΔramR and/or carbapenemase (Table 9)", "assay_type": "cell-based, Klebsiella pneumoniae", "procedure,_shortened": "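Cloned resistance genes in pACYC177 or pACYC184 were electroporated into K. pneumoniae NVT1001. MICs were determined by Etest and rounded up to the next two-fold value. Ceftazidime and cefotaxime against the blaOXA-48 construct were also tested by CLSI broth microdilution, with breakpoints from CLSI 2017 (cephalothin CLSI 2015, moxifloxacin EUCAST 2017).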"}, "[3]": {"system": "K. pneumoniae NVT1001 and its ΔompK35/36 and/or ΔramR mutants", "assay": "Etest MIC, OmpK35/36 loss and AcrAB-TolC overexpression (ΔramR) strains (Table 6)", "assay_type": "cell-based, Klebsiella pneumoniae", "procedure,_shortened": "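Etest strips per kit instructions; off-scale intermediate readings rounded upward to the nearest two-fold concentration. Broth microdilution (CLSI) for ceftazidime, cefotaxime only. Breakpoints: CLSI 2017 generally, CLSI 2015 for cephalothin, EUCAST 2017 for moxifloxacin.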"}}, "note": "Read-outs that look alike come from different tables or passages of the source.", "data": [{"compound": "C[C@@H](O)[C@H]1C(=O)N2C(C(=O)O)=C(SCCN=CN)C[C@H]12", "note": "[Imipenem]", "values": [{"measurement": "MIC", "setting": "[1]; ΔramRΔompK35/36::ompK35/36 revertant", "value": 0.25, "unit": "µg/mL"}, {"measurement": "MIC", "setting": "[1]; ΔramRΔompK35/36::ompK35 revertant", "value": 0.25, "unit": "µg/mL"}, {"measurement": "MIC", "setting": "[1]; ΔramRΔompK35/36::ompK36 revertant", "value": 0.25, "unit": "µg/mL"}, {"measurement": "MIC", "setting": "[1]; ΔramRΔompK35/36::ramR revertant", "value": 0.5, "unit": "µg/mL"}, {"measurement": "MIC", "setting": "[1]; ΔramRΔompK35/36::ramR::ompK35/36 revertant", "value": 0.5, "unit": "µg/mL"}, {"measurement": "MIC", "setting": "[1]; ΔramRΔompK35/36::ramR::ompK35 revertant", "value": 0.25, "unit": "µg/mL"}, {"measurement": "MIC", "setting": "[1]; ΔramRΔompK35/36::ramR::ompK36 revertant", "value": 0.25, "unit": "µg/mL"}, {"measurement": "MIC", "setting": "[1]; ΔramRΔompK35/36 mutant", "value": 0.5, "unit": "µg/mL"}, {"measurement": "MIC", "setting": "[2]; IMP-8 on pACYC177, WT (NVT1001), read-out: MIC", "value": 4, "unit": "µg/mL"}, {"measurement": "MIC", "setting": "[2]; IMP-8 on pACYC177, Δ35 (ΔompK35 mutant)", "value": 4, "unit": "µg/mL"}, {"measurement": "MIC", "setting": "[2]; IMP-8 on pACYC177, Δ35/36 (ΔompK35/36 mutant)", "value": "> 32", "unit": "µg/mL"}, {"measurement": "MIC", "setting": "[2]; IMP-8 on pACYC177, Δ36 (ΔompK36 mutant)", "value": 8, "unit": "µg/mL"}, {"measurement": "MIC", "setting": "[2]; IMP-8 on pACYC177, ΔramR mutant", "value": 4, "unit": "µg/mL"}, {"measurement": "MIC", "setting": "[2]; IMP-8 on pACYC177, ΔramRΔ35 (ΔramRΔompK35 mutant)", "value": 4, "unit": "µg/mL"}, {"measurement": "MIC", "setting": "[2]; IMP-8 on pACYC177, ΔramRΔ35/36 (ΔramRΔompK35/36 mutant)", "value": "> 32", "unit": "µg/mL"}, {"measurement": "MIC", "setting": "[2]; IMP-8 on pACYC177, ΔramRΔ36 (ΔramRΔompK36 mutant)", "value": "> 32", "unit": "µg/mL"}, {"measurement": "MIC", "setting": "[2]; KPC-2 on pACYC177, WT (NVT1001), read-out: MIC", "value": "> 32", "unit": "µg/mL"}, {"measurement": "MIC", "setting": "[2]; KPC-2 on pACYC177, Δ35 (ΔompK35 mutant)", "value": "> 32", "unit": "µg/mL"}, {"measurement": "MIC", "setting": "[2]; KPC-2 on pACYC177, Δ35/36 (ΔompK35/36 mutant)", "value": "> 32", "unit": "µg/mL"}, {"measurement": "MIC", "setting": "[2]; KPC-2 on pACYC177, Δ36 (ΔompK36 mutant)", "value": "> 32", "unit": "µg/mL"}, {"measurement": "MIC", "setting": "[2]; KPC-2 on pACYC177, ΔramR mutant", "value": "> 32", "unit": "µg/mL"}, {"measurement": "MIC", "setting": "[2]; KPC-2 on pACYC177, ΔramRΔ35 (ΔramRΔompK35 mutant)", "value": "> 32", "unit": "µg/mL"}, {"measurement": "MIC", "setting": "[2]; KPC-2 on pACYC177, ΔramRΔ35/36 (ΔramRΔompK35/36 mutant)", "value": "> 32", "unit": "µg/mL"}, {"measurement": "MIC", "setting": "[2]; KPC-2 on pACYC177, ΔramRΔ36 (ΔramRΔompK36 mutant)", "value": "> 32", "unit": "µg/mL"}, {"measurement": "MIC", "setting": "[2]; KPC-3 on pACYC177, WT (NVT1001), read-out: MIC", "value": 32, "unit": "µg/mL"}, {"measurement": "MIC", "setting": "[2]; KPC-3 on pACYC177, Δ35 (ΔompK35 mutant)", "value": "> 32", "unit": "µg/mL"}, {"measurement": "MIC", "setting": "[2]; KPC-3 on pACYC177, Δ35/36 (ΔompK35/36 mutant)", "value": "> 32", "unit": "µg/mL"}, {"measurement": "MIC", "setting": "[2]; KPC-3 on pACYC177, Δ36 (ΔompK36 mutant)", "value": "> 32", "unit": "µg/mL"}, {"measurement": "MIC", "setting": "[2]; KPC-3 on pACYC177, ΔramR mutant", "value": 32, "unit": "µg/mL"}, {"measurement": "MIC", "setting": "[2]; KPC-3 on pACYC177, ΔramRΔ35 (ΔramRΔompK35 mutant)", "value": 32, "unit": "µg/mL"}, {"measurement": "MIC", "setting": "[2]; KPC-3 on pACYC177, ΔramRΔ35/36 (ΔramRΔompK35/36 mutant)", "value": "> 32", "unit": "µg/mL"}, {"measurement": "MIC", "setting": "[2]; KPC-3 on pACYC177, ΔramRΔ36 (ΔramRΔompK36 mutant)", "value": "> 32", "unit": "µg/mL"}, {"measurement": "MIC", "setting": "[2]; NDM-1 on pACYC177, WT (NVT1001), read-out: MIC", "value": "> 32", "unit": "µg/mL"}, {"measurement": "MIC", "setting": "[2]; NDM-1 on pACYC177, Δ35 (ΔompK35 mutant)", "value": "> 32", "unit": "µg/mL"}, {"measurement": "MIC", "setting": "[2]; NDM-1 on pACYC177, Δ35/36 (ΔompK35/36 mutant)", "value": "> 32", "unit": "µg/mL"}, {"measurement": "MIC", "setting": "[2]; NDM-1 on pACYC177, Δ36 (ΔompK36 mutant)", "value": "> 32", "unit": "µg/mL"}, {"measurement": "MIC", "setting": "[2]; NDM-1 on pACYC177, ΔramR mutant", "value": "> 32", "unit": "µg/mL"}, {"measurement": "MIC", "setting": "[2]; NDM-1 on pACYC177, ΔramRΔ35 (ΔramRΔompK35 mutant)", "value": "> 32", "unit": "µg/mL"}, {"measurement": "MIC", "setting": "[2]; NDM-1 on pACYC177, ΔramRΔ35/36 (ΔramRΔompK35/36 mutant)", "value": "> 32", "unit": "µg/mL"}, {"measurement": "MIC", "setting": "[2]; NDM-1 on pACYC177, ΔramRΔ36 (ΔramRΔompK36 mutant)", "value": "> 32", "unit": "µg/mL"}, {"measurement": "MIC", "setting": "[2]; OXA-48 on pACYC177, WT (NVT1001), read-out: MIC", "value": 4, "unit": "µg/mL"}, {"measurement": "MIC", "setting": "[2]; OXA-48 on pACYC177, Δ35 (ΔompK35 mutant)", "value": 4, "unit": "µg/mL"}, {"measurement": "MIC", "setting": "[2]; OXA-48 on pACYC177, Δ35/36 (ΔompK35/36 mutant)", "value": "> 32", "unit": "µg/mL"}, {"measurement": "MIC", "setting": "[2]; OXA-48 on pACYC177, Δ36 (ΔompK36 mutant)", "value": 8, "unit": "µg/mL"}, {"measurement": "MIC", "setting": "[2]; OXA-48 on pACYC177, ΔramR mutant", "value": 4, "unit": "µg/mL"}, {"measurement": "MIC", "setting": "[2]; OXA-48 on pACYC177, ΔramRΔ35 (ΔramRΔompK35 mutant)", "value": 4, "unit": "µg/mL"}, {"measurement": "MIC", "setting": "[2]; OXA-48 on pACYC177, ΔramRΔ35/36 (ΔramRΔompK35/36 mutant)", "value": "> 32", "unit": "µg/mL"}, {"measurement": "MIC", "setting": "[2]; OXA-48 on pACYC177, ΔramRΔ36 (ΔramRΔompK36 mutant)", "value": "> 32", "unit": "µg/mL"}, {"measurement": "MIC", "setting": "[2]; VIM-1 on pACYC177, WT (NVT1001), read-out: MIC", "value": 16, "unit": "µg/mL"}, {"measurement": "MIC", "setting": "[2]; VIM-1 on pACYC177, Δ35 (ΔompK35 mutant)", "value": 32, "unit": "µg/mL"}, {"measurement": "MIC", "setting": "[2]; VIM-1 on pACYC177, Δ35/36 (ΔompK35/36 mutant)", "value": "> 32", "unit": "µg/mL"}, {"measurement": "MIC", "setting": "[2]; VIM-1 on pACYC177, Δ36 (ΔompK36 mutant)", "value": "> 32", "unit": "µg/mL"}, {"measurement": "MIC", "setting": "[2]; VIM-1 on pACYC177, ΔramR mutant", "value": 16, "unit": "µg/mL"}, {"measurement": "MIC", "setting": "[2]; VIM-1 on pACYC177, ΔramRΔ35 (ΔramRΔompK35 mutant)", "value": 16, "unit": "µg/mL"}, {"measurement": "MIC", "setting": "[2]; VIM-1 on pACYC177, ΔramRΔ35/36 (ΔramRΔompK35/36 mutant)", "value": "> 32", "unit": "µg/mL"}, {"measurement": "MIC", "setting": "[2]; VIM-1 on pACYC177, ΔramRΔ36 (ΔramRΔompK36 mutant)", "value": "> 32", "unit": "µg/mL"}, {"measurement": "MIC", "setting": "[2]; no supplemental plasmid, WT (NVT1001), read-out: MIC", "value": 0.5, "unit": "µg/mL"}, {"measurement": "MIC", "setting": "[2]; no supplemental plasmid, Δ35 (ΔompK35 mutant)", "value": 0.5, "unit": "µg/mL"}, {"measurement": "MIC", "setting": "[2]; no supplemental plasmid, Δ35/36 (ΔompK35/36 mutant)", "value": 0.5, "unit": "µg/mL"}, {"measurement": "MIC", "setting": "[2]; no supplemental plasmid, Δ36 (ΔompK36 mutant)", "value": 0.5, "unit": "µg/mL"}, {"measurement": "MIC", "setting": "[2]; no supplemental plasmid, ΔramR mutant", "value": 0.25, "unit": "µg/mL"}, {"measurement": "MIC", "setting": "[2]; no supplemental plasmid, ΔramRΔ35 (ΔramRΔompK35 mutant)", "value": 0.25, "unit": "µg/mL"}, {"measurement": "MIC", "setting": "[2]; no supplemental plasmid, ΔramRΔ35/36 (ΔramRΔompK35/36 mutant)", "value": 0.5, "unit": "µg/mL"}, {"measurement": "MIC", "setting": "[2]; no supplemental plasmid, ΔramRΔ36 (ΔramRΔompK36 mutant)", "value": 0.5, "unit": "µg/mL"}, {"measurement": "MIC", "setting": "[3]; WT, NVT1001, read-out: MIC", "value": 0.5, "unit": "µg/mL"}, {"measurement": "MIC", "setting": "[3]; Δ35, ΔompK35 mutant", "value": 0.5, "unit": "µg/mL"}, {"measurement": "MIC", "setting": "[3]; Δ35/36, ΔompK35/36 mutant", "value": 0.5, "unit": "µg/mL"}, {"measurement": "MIC", "setting": "[3]; Δ36, ΔompK36 mutant", "value": 0.5, "unit": "µg/mL"}, {"measurement": "MIC", "setting": "[3]; ΔramR mutant", "value": 0.25, "unit": "µg/mL"}, {"measurement": "MIC", "setting": "[3]; ΔramRΔ35, ΔramRΔompK35 mutant", "value": 0.25, "unit": "µg/mL"}, {"measurement": "MIC", "setting": "[3]; ΔramRΔ35/36, ΔramRΔompK35/36 mutant", "value": 0.5, "unit": "µg/mL"}, {"measurement": "MIC", "setting": "[3]; ΔramRΔ36, ΔramRΔompK36 mutant", "value": 0.5, "unit": "µg/mL"}]}]}
